# Reference: ChEMBL document CHEMBL1128247, “Prediction of receptor properties and binding affinity of ligands to benzodiazepine/GABAA receptors using artificial neural networks” (J Med Chem, 1995)
# Molecular target: GABA-A receptor; anion channel
# Assay: Binding affinity towards benzodiazepine/GABA A receptor.
# Type: protein-complex assay
# Set-up: unit not given here
row,SMILES,Log IC50
1,CC(C)(C)N1C(=O)CN=C(c2ccccc2)c2cc(Cl)ccc21,-2.792
2,O=C1CN=C(c2ccccc2F)c2ccccc2N1,-1.322
3,O=C1Nc2ccc(Cl)cc2C(c2ccccc2F)=NC1Cl (centres undefined),-0.724
4,CN1C(=O)CN=C(c2ccccc2)c2cc(Cl)c(Cl)cc21,-1.602
5,CN1C(=O)CN=C(c2ccccc2)c2cc(F)ccc21,-1.23
6,CN1C(=O)CN=C(c2ccccc2F)c2cc(C#N)ccc21,-1.477
7,CC1N=C(c2ccccc2)c2cc(Cl)ccc2N(Cl)C1=O (centres undefined),-1.69
8,CN1C(=O)CN=C(c2ccccc2)c2cc(N)ccc21,-2.663
9,O=C1CN=C(c2c(F)cccc2F)c2ccccc2N1,-1.279
10,O=C1CN=C(c2c(F)cccc2F)c2ccc(Cl)cc2N1,-1.447
11,O=C1CN=C(c2c(F)cccc2F)c2cc(Cl)ccc2N1,-0.204
12,O=C1CN=C(c2ccccc2F)c2cc(F)ccc2N1,-0.869
13,CN1C(=O)CN=C(c2ccccc2)c2cc(C#N)ccc21,-2.58
14,O=C1CN=C(c2ccccc2C(F)(F)F)c2cc([N+](=O)[O-])ccc2N1,-0.544
15,[N-]=[N+]=Nc1ccc2c(c1)C(c1ccccc1F)=NCC(=O)N2,-0.724
16,CC(C)(C)N1C(=O)CN=C(c2ccccc2F)c2cc([N+](=O)[O-])ccc21,-2.477
17,Cc1ccc2c(c1)NC(=O)CN=C2c1ccccc1F,-1.279
18,CN1C(=O)CN=C(c2c(F)cccc2F)c2cc(Cl)ccc21,-0.613
19,C=Cc1ccc2c(c1)C(c1ccccc1)=NCC(=O)N2,-1.38
20,CCc1ccc2c(c1)C(c1ccccc1)=NCC(=O)N2,-1.556
21,O=Cc1ccc2c(c1)C(c1ccccc1)=NCC(=O)N2,-1.633
22,CN1C(=O)CN=C(c2c(F)cccc2F)c2cc(Br)ccc21,-0.38

row,SMILES,Log IC50
1,CN1C(=O)CN=C(c2ccccc2Cl)c2ccccc21,-0.58
2,CN1C(=O)CN=C(c2ccccc2F)c2cc(I)ccc21,-0.462
3,CN1C(=O)CN=C(c2ccccc2F)c2cc(NO)ccc21,-1.982
4,CN1C(=O)CN=C(c2ccccc2F)c2cc(F)ccc21,-0.708
5,O=C1CN=C(c2ccccc2F)c2cc([N+](=O)[O-])ccc2N1,-0.176
6,CN1C(=O)CN=C(c2c(Cl)cccc2Cl)c2cc(Cl)ccc21,-0.74
7,O=C1CN=C(c2ccccc2F)c2cc(Cl)ccc2N1,-0.301
8,CN1C(=O)CN=C(c2ccccc2F)c2cc(N)ccc21 [7-AMINO-FLUNITRAZEPAM],-1.813
9,Nc1ccc2c(c1)C(c1ccccc1)=NCC(=O)N2 [7-AMINO-NITRAZEPAM],-2.587
10,Nc1ccc2c(c1)C(c1ccccc1Cl)=NCC(=O)N2 [7-AMINOCLONAZEPAM],-1.875
11,O=C1CN=C(c2ccccc2Cl)c2cc([N+](=O)[O-])ccc2N1 [CLONAZEPAM],-0.255
12,O=C1CN=C(c2ccccc2Cl)c2cc(Cl)ccc2N1 [DELORAZEPAM],-0.255
13,O=C1CN=C(c2ccccc2)c2cc(Cl)ccc2N1CC(F)(F)F [HALAZEPAM],-1.964
14,COCN1C(=O)CN=C(c2ccccc2)c2cc([N+](=O)[O-])ccc21 [MOTRAZEPAM],-2.633
15,O=C1CN=C(c2ccccc2)c2cc([N+](=O)[O-])ccc2N1 [NITRAZEPAM],-1
16,O=C1CN=C(c2ccccc2)c2cc(Cl)ccc2N1 [NORDAZEPAM],-0.973
17,O=C1CN=C(c2ccccc2)c2cc(C(F)(F)F)ccc2N1 [RO-052904],-1.114
18,O=C1CN=C(c2ccccc2)c2cc(F)ccc2N1 [RO-053061],-1.602
19,CN1C(=O)CN=C(c2ccccc2Cl)c2cc([N+](=O)[O-])ccc21 [RO-054082],-0.342
20,CN1C(=O)CN=C(c2ccccc2F)c2ccccc21 [RO-054520],-1.146
21,O=C1CN=C(c2c(Cl)cccc2Cl)c2cc(Cl)ccc2N1 [RO-223294],-0.845
22,CN1C(=O)C(O)N=C(c2ccccc2)c2cc(Cl)ccc21 (centres undefined) [TEMAZEPAM],-1.204
